Source: patent publication US6653327B2, “Cross-regulin composition of tumeric-derived tetrahydrocurcuminoids for skin lightening and protection against UVB rays” (Sabinsa Corporation, priority 1999, dated 2003)

Legend:
[1] = system: UVB-induced sunburn cells and p21 protein in epidermis; assay: UVB-induced formation of sunburn cells and p21 protein levels in epidermis; assay type: in vivo, SKH-1 mice; details: 8 hours after UVB
Description: Female Sencar mice (5 mice per group) were treated topically with 100 ul acetone or inhibitor in acetone at 5 min before a single dose of UVB (60 mJ/cm2) irradiation. The mice were killed 8 hours after UVB irradiation, and the skin biopsies were evaluated for sunburn cells and p21 protein.

TPA-induced ear edema = TPA-induced ear edema in mice (ear punch weight); assay type: in vivo, Female CF-1 mice; details: 5 hours; for Wg/punch: mean SE
Description: Applicants have postulated that the crossregulin composition of the invention is an optimal composition for protecting and preserving healthy living cells and for preventing cytoskeletons of the healthy living cells from being damaged by TPA and TPA-like tumor promoters. In an experiment conducted in vivo, the ear skin of Female CF-1 mice was treated with either 20 microliters acetone, TPA in acetone or TPA with Tetrahydrocurcuminoids of the invention [THC1], known Tetrahydrocurcuminoids [THC2] and known pure (synthetic) Tetrahydrocurcumin [THC3].
Five hours later the mice were sacrificed and ear punches were weighted (the higher the weight, score the more severe the inflammation of the treated ear-skin). Based on the weight score of the ear punches, the percent of inflammation inhibition was calculated. Protection against inflammation in decreasing order was furnished by THC1 of the invention, followed by THC2 of the prior art, and finally followed by THC3. […] Prior art, as exemplified by the research data, cannot accomplish inhibition of the TPA induced ear edema above 80%. More than 80% inhibition of TPA-induced ear edema is necessary to prevent crosslinking of proteins which could trigger skin cancer. Therefore crossregulin action is not an inherent part of just any composition of THCs, but it is a specific composition that affords inhibition of the TPA mechanism by more than 80%.

[2] = 10 uM topical 5 min before UVB (60 mJ/cm2)
[3] = 20 uM topical 5 min before UVB (60 mJ/cm2)

SMILES | % p21 [1, 2] [%] | Number of positive cells per 1 cm slide (p21) [1, 2] | Number of sunburn cells per 1 cm slide [1, 2] | Percent Of Sunburn cells [1, 2] | % p21 [1, 3] [%] | Number of positive cells per 1 cm slide (p21) [1, 3] | Number of sunburn cells per 1 cm slide [1, 3] | Percent Of Sunburn cells [1, 3] | Wg/punch (TPA-induced ear edema; dose 0.36 mg topical with TPA (1 nmol) in acetone on both ears) | % inhibition of TPA-induced ear edema (TPA-induced ear edema; dose 0.36 mg topical with TPA (1 nmol)) [%] | Wg/punch (TPA-induced ear edema; dose 0.12 topical with TPA (1 nmol) in acetone on both ears) | % inhibition of TPA-induced ear edema (TPA-induced ear edema; dose 0.12 topical with TPA (1 nmol)) [%]
O=C(CC(=O)c1ccccc1)c1ccccc1 [DBM, dibenzoylmethane] | 1.2 | 33.5 ± 7.49 | 13.2 ± 5.35 | 1.2 | 2.2 | 60.6 ± 12.9 | 8.6 ± 1.78 | 0.9 | – | – | – | –
COc1cc(CCC(=O)CC(=O)CCc2ccc(O)c(OC)c2)ccc1O [THC3, tetrahydrocurcumin] | – | – | – | – | – | – | – | – | 8.1 ± 0.3 | 77.2 | 7.8 ± 0.3 | 81.0
